Values joined by “and” are separate entries in the source; they are usually repeats but may differ in a detail not shown here. Equal values may be shown once.
What was measured:
arginine vasopressin [1] = test: Change in mean arterial pressure after AVP injection in rats, before and after nasal administration of the selective antagonist; format: in vivo, Wistar rats
Method: On the day before experimental testing, each rat was placed under ether anesthesia, and the right iliac artery and the right external jugular vein were catherized with PE-50 tubing. On the day following surgery, with the animal remaining unrestrained, the mean arterial pressure was monitored via a Hewlett-Packard 1280C transducer and a 7702B Recorder.
A vasopressin injection was prepared by diluting commercially obtained Pitressin at 20 U/ml concentration with 5% dextrose in water (hereinafter "D5W") to yield a sterile 20 mU/ml final concentration. […] All intravenous injections of vasopressin were flushed through using an additional volume comprising 0.2-0.3 ml of D5W.
Each experimental animal was tested in two stages: initially, two 0.1 ml injections each containing 2.0 millipressor units of arginine vasopressin were given through the venous catheter over a ten minute period and the individual changes in mean arterial pressure recorded. This stage identified each of the test animals as being susceptible to the physiological effects of vasopressin. The second stage of the experiment comprised release of 0.1 ml containing 250 ug of the selective antagonist onto the nasal mucosae of the rat via a PE-50 catheter which had been inserted into one of the nostrils to a depth of about four millimeters. This administration of the antagonist as a nasal spray onto the mucosae of the nose was followed by repeated injection of 0.1 ml volumes, each containing 2.0 millipressor units of arginine vasopressin, at 10, 20, 30, 60, and 120 minutes after the administration of the selective antagonist. The change in mean arterial pressure was recorded at each of these intervals after each injection of the vasopressin.

arginine vasopressin [2] = details: 0.5 mg i.v.; exogenous AVP 20 mU/kg; cited from earlier work

Row | Compound | mean change in arterial pressure (arginine vasopressin [1]; 2.0 millipressor units AVP i.v., mean of the three test animals) | Changes in Mean Arterial Pressure After AVP Injection Alone (arginine vasopressin [1]; individual rats, 2.0 millipressor units AVP i.v., no antagonist) | effect of repeated 2.0 mU vasopressin injection after nasal spraying (arginine vasopressin [1]; 250 ug nasal, for at least the two hours of the test) | Changes in Mean Arterial Pressure After Antagonist Adm. + AVP Injections, 10' (arginine vasopressin [1]; individual rats, 250 ug antagonist onto nasal mucosae, 2.0 mU AVP i.v. 10 min later) | Changes in Mean Arterial Pressure After Antagonist Adm. + AVP Injections, 20' (arginine vasopressin [1]; individual rats, 250 ug antagonist onto nasal mucosae, 2.0 mU AVP i.v. 20 min later) | Changes in Mean Arterial Pressure After Antagonist Adm. + AVP Injections, 30' (arginine vasopressin [1]; individual rats, 250 ug antagonist onto nasal mucosae, 2.0 mU AVP i.v. 30 min later) | Changes in Mean Arterial Pressure After Antagonist Adm. + AVP Injections, 60' (arginine vasopressin [1]; individual rats, 250 ug antagonist onto nasal mucosae, 2.0 mU AVP i.v. 60 min later) | Changes in Mean Arterial Pressure After Antagonist Adm. + AVP Injections, 120' (arginine vasopressin [1]; individual rats, 250 ug antagonist onto nasal mucosae, 2.0 mU AVP i.v. 120 min later) | inhibition of the blood pressure response to exogenous arginine vasopressin (arginine vasopressin [2]) [%]
1 | NC(=O)CC[C@@H]1NC(=O)[C@H](Cc2ccccc2)NC(=O)[C@H](Cc2ccc(O)cc2)NC(=O)[C@@H](N)CSSC[C@@H](C(=O)N2CCC[C@H]2C(=O)N[C@@H](CCCN=C(N)N)C(=O)NCC(N)=O)NC(=O)[C@H](CC(N)=O)NC1=O [AVP, arginine vasopressin, reference compound] | about 35 mmHg | +37.5 mm Hg and +38.5 mm Hg and +29.0 mm Hg | – | – | – | – | – | – | –
2 | [1-(β-mercapto-β,β-cyclopentamethylenepropionic acid), 2-(O-methyl)tyrosine]arginine vasopressin [AVP Antagonist] | – | – | no significant effect | 0 mm Hg and +5 mm Hg | 0 mm Hg and +5 mm Hg | 0 mm Hg and +5 mm Hg | 0 mm Hg and +5 mm Hg | 0 mm Hg and +5 mm Hg | 80
